# Test results: publication PMC6934184, “Selective DNA-PKcs inhibition extends the therapeutic index of localized radiotherapy and chemotherapy” (The Journal of Clinical Investigation, 2019)
# Target: T1, PIK3CG (p110 gamma) (Homo sapiens, UniProt P48736)
# T1 construct: purchased Thermo Fisher Scientific (Life Technologies) SelectScreen
# Assay: SelectScreen Adapta
# Format: biochemical
# Procedure, shortened: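 NU5455 was profiled across the SelectScreen Broad panel of kinase activity and binding assays. Z'LYTE reactions such as CSF1R ran at apparent Km ATP, while the Adapta CAMK1 assay used ATP listed as 10. Values are given as percent.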
# T1 sequence (P48736 whole entry): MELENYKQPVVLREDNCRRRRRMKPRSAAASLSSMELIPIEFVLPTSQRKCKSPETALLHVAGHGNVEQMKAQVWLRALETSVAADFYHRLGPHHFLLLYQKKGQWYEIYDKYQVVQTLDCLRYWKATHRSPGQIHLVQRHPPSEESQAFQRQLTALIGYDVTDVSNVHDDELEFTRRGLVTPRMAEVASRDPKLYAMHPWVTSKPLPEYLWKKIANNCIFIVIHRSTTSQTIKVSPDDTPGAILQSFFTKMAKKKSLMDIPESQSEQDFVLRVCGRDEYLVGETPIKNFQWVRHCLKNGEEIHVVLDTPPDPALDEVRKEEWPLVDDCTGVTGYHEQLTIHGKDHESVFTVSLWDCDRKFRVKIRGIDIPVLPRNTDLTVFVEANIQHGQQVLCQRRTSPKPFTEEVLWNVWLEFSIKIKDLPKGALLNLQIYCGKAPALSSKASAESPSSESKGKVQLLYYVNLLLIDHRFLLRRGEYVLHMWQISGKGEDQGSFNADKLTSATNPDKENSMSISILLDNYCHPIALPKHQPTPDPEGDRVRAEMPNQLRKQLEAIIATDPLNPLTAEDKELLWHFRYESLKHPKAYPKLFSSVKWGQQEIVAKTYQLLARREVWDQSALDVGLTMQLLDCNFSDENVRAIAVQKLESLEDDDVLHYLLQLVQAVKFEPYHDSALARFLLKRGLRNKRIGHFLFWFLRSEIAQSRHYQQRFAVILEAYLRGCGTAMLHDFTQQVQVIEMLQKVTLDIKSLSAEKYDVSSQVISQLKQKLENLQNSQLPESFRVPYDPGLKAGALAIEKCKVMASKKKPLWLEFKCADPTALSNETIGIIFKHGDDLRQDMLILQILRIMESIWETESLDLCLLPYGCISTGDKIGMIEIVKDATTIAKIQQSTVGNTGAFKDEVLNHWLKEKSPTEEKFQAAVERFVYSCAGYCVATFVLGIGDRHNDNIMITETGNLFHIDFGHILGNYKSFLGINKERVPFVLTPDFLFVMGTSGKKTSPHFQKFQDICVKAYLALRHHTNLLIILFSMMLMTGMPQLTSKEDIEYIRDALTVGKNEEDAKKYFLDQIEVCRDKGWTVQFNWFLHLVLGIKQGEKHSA
smiles,measurement,value
CN(C(=O)CN1CCOCC1)c1ccc2sc3c(-c4cccc5c(=O)cc(N6CC7CCC(C6)O7)oc45)cccc3c2c1 [NU5455],inhibition at 1 µM,2.9%
